# Measured values: US11203587B2, “Thyroid hormone receptor beta agonist compounds” (Terns, Inc., priority 2018, dated 2021)
# How the values were obtained:
# [1] = target: T1, THR alpha-LBD (Homo sapiens, UniProt P10827); assay: LanthaScreen TR-FRET Thyroid Receptor alpha Coactivator Assay; format: biochemical; conditions: 2 hours incubation at room temperature, run in duplicate multiple times, average data, read-out: EC50 THRα-FRET
# T1 construct: THR alpha-LBD (0.4 nM final concentration) or THR beta-LBD (1.0 nM final concentration) was added; purchased ThermoFisher
# T1 sequence (P10827 163-410 isoform P10827-2 limits assumed, other chains not shown): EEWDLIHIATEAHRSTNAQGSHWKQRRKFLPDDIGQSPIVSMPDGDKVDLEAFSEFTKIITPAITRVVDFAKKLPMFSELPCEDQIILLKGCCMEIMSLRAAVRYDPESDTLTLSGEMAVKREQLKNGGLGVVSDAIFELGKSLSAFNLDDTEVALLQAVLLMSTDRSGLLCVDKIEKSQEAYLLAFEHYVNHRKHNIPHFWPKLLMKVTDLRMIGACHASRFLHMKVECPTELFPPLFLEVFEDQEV
# Description: Example B1: Time-Resolved Fluorescence Resonance Energy Transfer (TR-FRET) Assay for Thyroid Hormone Receptor Agonist Screening
# LanthaScreen™ TR-FRET Thyroid Receptor alpha Coactivator Assay kit (ThermoFisher) and LanthaScreen™ TR-FRET Thyroid Receptor beta Coactivator Assay kit (ThermoFisher) were used for agonist compound screening. Compounds in DMSO were diluted using ECHO Liquid Handler (Labcyte Inc.) into 384 plates in 10-point 3-fold series in duplicate (5 micro M final top concentration). Buffer C (ThermoFisher) was added to each well before the 4× mixture of fluorescein-SCR2-2 coactivator (200 nM final concentration), Terbium-labeled anti-GST antibody (2 nM final concentration), and THR alpha-LBD (0.4 nM final concentration) or THR beta-LBD (1.0 nM final concentration) was added. After 2 hours incubation at room temperature in the dark, the TR-FRET signal was measured on an EnVision plate reader (PerkinElmer) with excitation at 340 nm and dual emission readout at 495 and 520 nm with the delay time of 100 micro second and the integration time of 200 micro second. The ratio of emission signal at 520 and at 495 was used to calculate EC50 using GraphPad Prism (GraphPad Software). […] Compounds' THR-beta selectivity values in Table 2 are derived from T3-selectivity normalized data.
# [2] = target: T2, THR beta-LBD (Homo sapiens, UniProt P10828); assay: LanthaScreen TR-FRET Thyroid Receptor beta Coactivator Assay; format: biochemical; conditions: for THRβ-Selectivity: THR beta over THR alpha, derived from T3-selectivity normalized data; for EC50: TR-FRET coactivator assay, 2 hours incubation at room temperature, run in duplicate multiple times, average data, read-out: EC50 THRβ-FRET
# T2 construct: THR alpha-LBD (0.4 nM final concentration) or THR beta-LBD (1.0 nM final concentration) was added; purchased ThermoFisher
# T2 sequence (P10828 217-461 limits assumed): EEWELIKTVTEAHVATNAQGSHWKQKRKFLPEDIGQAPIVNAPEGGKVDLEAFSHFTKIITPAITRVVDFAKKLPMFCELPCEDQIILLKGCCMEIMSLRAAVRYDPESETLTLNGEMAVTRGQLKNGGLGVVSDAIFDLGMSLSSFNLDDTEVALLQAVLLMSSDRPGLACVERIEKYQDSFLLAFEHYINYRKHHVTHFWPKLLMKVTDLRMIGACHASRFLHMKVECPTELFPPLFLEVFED
# Description: LanthaScreen™ TR-FRET Thyroid Receptor alpha Coactivator Assay kit (ThermoFisher) and LanthaScreen™ TR-FRET Thyroid Receptor beta Coactivator Assay kit (ThermoFisher) were used for agonist compound screening. […] Buffer C (ThermoFisher) was added to each well before the 4× mixture of fluorescein-SCR2-2 coactivator (200 nM final concentration), Terbium-labeled anti-GST antibody (2 nM final concentration), and THR alpha-LBD (0.4 nM final concentration) or THR beta-LBD (1.0 nM final concentration) was added.
EC50 [1] [nM],THRβ-Selectivity [2],EC50 [2] [nM],SMILES
1310,24.7,214,"CCC(O)c1cc(Oc2c(Cl)cc(-c3nn(C)c(=O)[nH]c3=O)cc2Cl)n[nH]c1=O (stereo not drawn) [Compound 30, 6-(3,5-dichloro-4-((5-(1-hydroxypropyl)-6-oxo-1,6-dihydropyridazin-3-yl)oxy)phenyl)-2-methyl-1,2,4-triazine-3,5(2H,4H)-dione]"
2670,14.4,987,"CC(O)c1cc(Oc2c(Cl)cc(-c3nn(C)c(=O)[nH]c3=O)cc2Cl)n[nH]c1=O (stereo not drawn) [Compound 31, 6-(3,5-dichloro-4-((5-(1-hydroxyethyl)-6-oxo-1,6-dihydropyridazin-3-yl)oxy)phenyl)-2-methyl-1,2,4-triazine-3,5(2H,4H)-dione]"
1130,20.9,231,"CCC(C)c1cc(Oc2c(Cl)cc(-c3nn(C)c(=O)[nH]c3=O)cc2Cl)n[nH]c1=O (stereo not drawn) [Compound 32, 6-(4-((5-(sec-butyl)-6-oxo-1,6-dihydropyridazin-3-yl)oxy)-3,5-dichlorophenyl)-2-methyl-1,2,4-triazine-3,5(2H,4H)-dione]"
1160,8.6,400,"CC(O)c1cc(Oc2c(Cl)cc(-c3n[nH]c(=O)[nH]c3=O)cc2Cl)n[nH]c1=O (stereo not drawn) [Compound 34, 6-(3,5-dichloro-4-((5-(1-hydroxyethyl)-6-oxo-1,6-dihydropyridazin-3-yl)oxy)phenyl)-1,2,4-triazine-3,5(2H,4H)-dione]"
1870,10.6,665,"CC(=O)c1cc(Oc2c(Cl)cc(-c3n[nH]c(=O)[nH]c3=O)cc2Cl)nn(C)c1=O [Compound 35, 6-(4-((5-acetyl-1-methyl-6-oxo-1,6-dihydropyridazin-3-yl)oxy)-3,5-dichlorophenyl)-1,2,4-triazine-3,5(2H,4H)-dione]"

# The next lines start with the molecule.
SMILES,EC50 [1] [nM],THRβ-Selectivity [2],EC50 [2] [nM]
"CC(C)c1cc(Oc2c(Cl)cc(-c3nn(CC(F)F)c(=O)[nH]c3=O)cc2Cl)n[nH]c1=O [Compound 23, 6-(3,5-dichloro-4-((5-isopropyl-6-oxo-1,6-dihydropyridazin-3-yl)oxy)phenyl)-2-(2,2-difluoroethyl)-1,2,4-triazine-3,5(2H,4H)-dione]",3230,9.2,1380
"CC(C)c1cc(Oc2c(Cl)cc(-c3nn(CC(F)F)c(=O)[nH]c3=O)cc2Cl)nn(C)c1=O [Compound 24, 6-(3,5-dichloro-4-((5-isopropyl-1-methyl-6-oxo-1,6-dihydropyridazin-3-yl)oxy)phenyl)-2-(2,2-difluoroethyl)-1,2,4-triazine-3,5(2H,4H)-dione]",1480,4.7,1190
"CC(C)c1cc(Oc2c(Cl)cc(-c3n[nH]c(=O)[nH]c3=O)c(F)c2Cl)nn(C)c1=O [Compound 25, 6-(3,5-dichloro-2-fluoro-4-((5-isopropyl-1-methyl-6-oxo-1,6-dihydropyridazin-3-yl)oxy)phenyl)-1,2,4-triazine-3,5(2H,4H)-dione]",25,4.4,22.2
"CCC(CC)c1cc(Oc2c(Cl)cc(-c3nn(C)c(=O)[nH]c3=O)cc2Cl)n[nH]c1=O [Compound 27, 6-(3,5-dichloro-4-((6-oxo-5-(pentan-3-yl)-1,6-dihydropyridazin-3-yl)oxy)phenyl)-2-methyl-1,2,4-triazine-3,5(2H,4H)-dione]",1750,33.9,213
"CCc1cc(Oc2c(Cl)cc(-c3nn(C)c(=O)[nH]c3=O)cc2Cl)n[nH]c1=O [Compound 28, 6-(3,5-dichloro-4-((5-ethyl-6-oxo-1,6-dihydropyridazin-3-yl)oxy)phenyl)-2-methyl-1,2,4-triazine-3,5(2H,4H)-dione]",3440,19.2,670
"CC(CO)c1cc(Oc2c(Cl)cc(-c3nn(C)c(=O)[nH]c3=O)cc2Cl)n[nH]c1=O (stereo not drawn) [Compound 29, 6-(3,5-dichloro-4-((5-(1-hydroxypropan-2-yl)-6-oxo-1,6-dihydropyridazin-3-yl)oxy)phenyl)-2-methyl-1,2,4-triazine-3,5(2H,4H)-dione]",4040,7.105,2070
